In article PMC11357256, “Selectivity Screening and Structure–Cytotoxic Activity Observations of Selected Oleanolic Acid (OA)-Type Saponins from the Amaranthaceae Family on a Wiade Panel of Human Cancer Cell Lines” (Molecules, 2024):

Columns and labels:
Du-145 = experiment: MTT cell viability assay, Du-145 prostate carcinoma cells; type: cell-based; conditions: Homo sapiens
Description: (§1) Cell lines used in the study were grouped as follows: skin panel (melanomas: HTB140, derived from metastatic site: lymph node, ATCC Hs 294 T; malignant A375, ATCC CRL-1619; stage I primary WM793, RRID:CVCL 8787; skin keratinocytes HaCaT); prostate panel (prostate carcinomas: Du145, derived from metastatic site: brain, ATCC HTB-81; grade IV PC3, derived from metastatic site: bone, ATCC CRL-1435, LNCaP, derived from the metastatic site: lymph node, ATCC CRL-1740; prostate epithelial, PNT2, ECACC 95012613); gastrointestinal panel (colorectal adenocarcinomas: Caco2, ATCC HTB-37, HT29, ATCC HTB-38, DLD-1, ATCC CCL-221, HCT116, ATCC CCL-247, and colon epithelial cells CCD 841 CoN, ATCC CRL-1790; hepatocellular carcinoma HepG2, ATCC HB-8065); thyroid panel (follicular thyroid carcinoma FTC133, ECACC 9406090, undifferentiated thyroid carcinoma 8505C, ECACC 94090184, papillary thyroid carcinoma TPC-1, SCC147, normal thyroid follicular epithelial Nthy-ori 3–1, ECACC 90011609); and breast panel (ER-positive breast adenocarcinoma MCF7, ATCC HTB-22; ER-negative breast adenocarcinoma MDA-MB-231, ATCC HTB-26; breast epithelial MCF10A, ATCC CRL-10317). Cells were grown under standard conditions (37 °C, 5% CO2, relative humidity), and culture media (DMEM/F12 for PNT2, WM 793, HT29, PC3, FTC133, 8505 C, MDA-MB-231, TPC-1; DMEM Low Glucose for DU145; DMEM High Glucose for HTB140, A375, HaCaT; MEM with NEAA for Caco2 and MCF7; RPMI1640 with sodium pyruvate for LNCaP; DMEM/F12 with 20 ng/mL epidermal growth factor (EGF), 10 μg/mL insulin, 0.5 μg/mL hydrocortisone, 100 ng/mL cholera toxin) for MCF10A) supplemented with 10% fetal bovine serum (FBS) or 5% donor horse serum for MCF10A, and 1% antibiotics solution (10,000 U penicillin and 10 mg streptomycin/mL) […], as previously described. All cell lines, culture media, and supplements were from Sigma-Aldrich (Germany).
(§2) The cells were seeded in 96-well plates (1.5 × 10^4 cells/well). After 24 h, fresh medium was added, containing the tested compounds (0.5–100 μg/mL) and incubated for 24 or 48 h. Cell viability was determined by MTT assay, according to the manufacturer’s instructions, as described previously. Each experiment was performed in triplicate. The absorbance was measured at 570 nm using a Biotek Synergy microplate reader (BioTek Instruments Inc., Winooski, VT, USA). Cell viability was expressed as a percent of control (untreated cells). Doxorubicin was used as a reference drug.

PC3 = experiment: MTT cell viability assay, PC3 prostate carcinoma cells; type: cell-based; conditions: Homo sapiens, PC-3
Description: as §1, §2

LNCaP = experiment: MTT cell viability assay, LNCaP prostate adenocarcinoma cells; type: cell-based; conditions: Homo sapiens
Description: as §1, §2

PNT2 = experiment: MTT cell viability assay, PNT2 normal prostate epithelial cells; type: cell-based; conditions: Homo sapiens
Description: as §1, §2

MDA-MB-231 = experiment: MTT cell viability assay, MDA-MB-231 breast adenocarcinoma cells; type: cell-based; conditions: Homo sapiens
Description: as §1, §2

MCF7 = experiment: MTT cell viability assay, MCF7 breast adenocarcinoma cells; type: cell-based; conditions: Homo sapiens
Description: as §1, §2

MCF10A = experiment: MTT cell viability assay, MCF10A normal breast epithelial cells; type: cell-based; conditions: Homo sapiens, MCF-10A
Description: as §1, §2

FTC133 = experiment: MTT cell viability assay, FTC133 follicular thyroid carcinoma cells; type: cell-based, human; conditions: for IC50: Homo sapiens, FTC-133
Description: as §1, §2
(§3) The selectivity index (SI) was calculated from the following formula:SI = IC50 of compound in a normal cell line/IC50 of compound in cancer cell line.IC50, half maximal inhibitory concentration, is a concentration required to kill 50% of the cells.

8505C = experiment: MTT cell viability assay, 8505C undifferentiated thyroid carcinoma cells; type: cell-based, human; conditions: for IC50: Homo sapiens, 8505C; for Selectivity Index (SI): IC50 Nthy-ori 3-1 / IC50 8505C
Description: as §1, §2, §3

TPC-1 = experiment: MTT cell viability assay, TPC-1 papillary thyroid carcinoma cells; type: cell-based, human; conditions: for IC50: Homo sapiens, TPC1
Description: as §1, §2, §3

Nthy-ori 3-1 = experiment: MTT cell viability assay, Nthy-ori 3-1 normal thyroid epithelial cells; type: cell-based; conditions: Homo sapiens
Description: as §1, §2

Caco-2 = experiment: MTT cell viability assay, Caco-2 colon cancer cells; type: cell-based; conditions: Homo sapiens
Description: as §1, §2

HT29 = experiment: MTT cell viability assay, HT29 colorectal adenocarcinoma cells; type: cell-based; conditions: Homo sapiens, HT-29
Description: as §1, §2

HepG2 = experiment: MTT cell viability assay, HepG2 hepatocellular carcinoma cells; type: cell-based; conditions: Homo sapiens
Description: as §1, §2

DLD-1 = experiment: MTT cell viability assay, DLD-1 colon cancer cells; type: cell-based; conditions: Homo sapiens
Description: as §1, §2

HCT116 = experiment: MTT cell viability assay, HCT116 colon cancer cells; type: cell-based; conditions: Homo sapiens, HCT-116
Description: as §1, §2

CCD 841 CoN = experiment: MTT cell viability assay, CCD 841 CoN normal colon epithelial cells; type: cell-based; conditions: Homo sapiens
Description: as §1, §2

HTB-140 = experiment: MTT cell viability assay, HTB-140 metastatic melanoma cells; type: cell-based, human; conditions: for IC50: Homo sapiens
Description: as §1, §2, §3

A375 = experiment: MTT cell viability assay, A375 malignant melanoma cells; type: cell-based, human; conditions: for IC50: Homo sapiens, A-375
Description: as §1, §2, §3

WM793 = experiment: MTT cell viability assay, WM793 primary melanoma cells; type: cell-based, human; conditions: for IC50: Homo sapiens
Description: as §1, §2, §3

HaCaT = experiment: MTT cell viability assay, HaCaT keratinocytes; type: cell-based; conditions: Homo sapiens
Description: as §1, §2

## CC1(C)CC[C@]2(C(=O)O)CC[C@]3(C)C(=CC[C@@H]4[C@@]5(C)CC[C@H](O)C(C)(C)[C@@H]5CC[C@]43C)[C@@H]2C1 [OA, oleanolic acid]
Du-145; DU-145, 24 h
  IC50: 23.4 µg/mL
Du-145; DU-145, 48 h
  IC50: 12.2 µg/mL
PC3; PC3, 24 h
  IC50: > 100 µg/mL
PC3; PC3, 48 h
  IC50: > 100 µg/mL
LNCaP; 24 h
  IC50: > 100 µg/mL
LNCaP; 48 h
  IC50: > 100 µg/mL
PNT2; 24 h
  IC50: > 100 µg/mL
PNT2; 48 h
  IC50: > 100 µg/mL
MDA-MB-231; MDA-MB-231, 24 h
  IC50: > 100 µg/mL
MDA-MB-231; MDA-MB-231, 48 h
  IC50: 38.5 µg/mL
MCF7; MCF7, 24 h
  IC50: > 100 µg/mL
MCF7; MCF7, 48 h
  IC50: 67 µg/mL
MCF10A; 24 h
  IC50: > 100 µg/mL
MCF10A; 48 h
  IC50: > 100 µg/mL
FTC133; FTC133, 24 h
  IC50: 13.5 µg/mL
FTC133; FTC133, 48 h
  IC50: 4.9 µg/mL
FTC133; IC50 Nthy-ori 3-1 / IC50 FTC133, 24 h
  Selectivity Index (SI): 6.99
FTC133; IC50 Nthy-ori 3-1 / IC50 FTC133, 48 h
  Selectivity Index (SI): 14.6
8505C; 24 h
  IC50: 19.5 µg/mL
  Selectivity Index (SI): 4.8
8505C; 48 h
  IC50: 11.3 µg/mL
  Selectivity Index (SI): 6.4
TPC-1; TPC-1, 24 h
  IC50: 36.6 µg/mL
TPC-1; TPC-1, 48 h
  IC50: 30 µg/mL
TPC-1; IC50 Nthy-ori 3-1 / IC50 TPC-1, 24 h
  Selectivity Index (SI): 2.6
TPC-1; IC50 Nthy-ori 3-1 / IC50 TPC-1, 48 h
  Selectivity Index (SI): 2.4
Nthy-ori 3-1; 24 h
  IC50: 94.4 µg/mL
Nthy-ori 3-1; 48 h
  IC50: 71.6 µg/mL
Caco-2; Caco-2, 24 h
  IC50: 13 µg/mL
Caco-2; Caco-2, 48 h
  IC50: 8.3 µg/mL
HT29; HT29, 24 h
  IC50: > 100 µg/mL
HT29; HT29, 48 h
  IC50: > 100 µg/mL
HepG2; HepG2, 24 h
  IC50: 51.5 µg/mL
HepG2; HepG2, 48 h
  IC50: 10.7 µg/mL
DLD-1; DLD-1, 24 h
  IC50: 48.7 µg/mL
DLD-1; DLD-1, 48 h
  IC50: 24.5 µg/mL
HCT116; HCT116, 24 h
  IC50: 25.6 µg/mL
HCT116; HCT116, 48 h
  IC50: 18.5 µg/mL
CCD 841 CoN; 24 h
  IC50: > 100 µg/mL
CCD 841 CoN; 48 h
  IC50: > 100 µg/mL
HTB-140; HTB-140, 24 h
  IC50: 51.4 µg/mL
HTB-140; HTB-140, 48 h
  IC50: 29.5 µg/mL
HTB-140; IC50 HaCaT / IC50 HTB-140, 24 h
  Selectivity Index (SI): 0.2
HTB-140; IC50 HaCaT / IC50 HTB-140, 48 h
  Selectivity Index (SI): 0.2
A375; A375, 24 h
  IC50: 2.2 µg/mL
A375; A375, 48 h
  IC50: 0.9 µg/mL
A375; IC50 HaCaT / IC50 A375, 24 h
  Selectivity Index (SI): 5.2
WM793; WM793, 24 h
  IC50: 2.8 µg/mL
WM793; WM793, 48 h
  IC50: 1.2 µg/mL
WM793; IC50 HaCaT / IC50 WM793, 24 h
  Selectivity Index (SI): 4.0
WM793; IC50 HaCaT / IC50 WM793, 48 h
  Selectivity Index (SI): 6.0
HaCaT; 24 h
  IC50: 11.2 µg/mL
HaCaT; 48 h
  IC50: 7.5 µg/mL
